Counter-ions that a name gives are not always drawn. Like-named read-outs stand apart in the source and are kept apart here.
Molecular target: SARS-CoV-2 3CLpro (Severe acute respiratory syndrome coronavirus 2, UniProt P0DTD1)
Assay: biochemical
Format: biochemical
Details: for SARS-CoV-2 3CLpro inhibitor grade in words: grading by IC50 in the IQF peptide assay
[1] = IC50, inhibition of SARS-CoV-2 3CLpro activity
[2] = 0.25 µM protease, 1.25 µM IQF peptide substrate, drugs 0–100 µM preincubated 1 h at 37 °C, then 3 h, N = 3, mean ± SEM, read-out: IC50, inhibition of SARS-CoV-2 3CLpro activity

Compound `Oc1ncnc2[nH]ncc12` [Allopurinol] has an IC50 [1] of 3.77 µM.
`NC(=O)C[S@@+]([O-])C(c1ccccc1)c1ccccc1` [Armodafinil] gave an IC50 [2] of 17.9 µM.
`C=C(c1ccc(C(=O)O)cc1)c1cc2c(cc1C)C(C)(C)CCC2(C)C` [Bexarotene] was tested, and the IC50 [2] was 26.5 µM and the “SARS-CoV-2 3CLpro inhibitor grade in words” value was “moderate”.
In the case of `CC(=O)Oc1ccc(C(c2ccc(OC(C)=O)cc2)c2ccccn2)cc1` [Bisacodyl], the IC50 [1] is reported as 17.5 µM.
In the case of `CN(Cc1ccc(C(C)(C)C)cc1)Cc1cccc2ccccc12` [Butenafine hydrochloride], the IC50 [1] is reported as 5.4 µM.
For `COCC1=C(C(=O)OC(C)OC(=O)OC(C)C)N2C(=O)[C@@H](NC(=O)/C(=N\OC)c3csc(N)n3)[C@H]2SC1` (stereo partly shown) [Cefpodoxime proxetil], the IC50 [1] was 32.4 µM and the “SARS-CoV-2 3CLpro inhibitor grade in words” value was “moderate”.
With `O=C(O)COCCN1CCN(C(c2ccccc2)c2ccc(Cl)cc2)CC1` (stereo not shown) [Cetirizine] the IC50 [1] was 25.6 µM.
In the case of `CCCCCCCCCCCCCCCC(=O)O[C@@H]1[C@@H](O)[C@@H](O)[C@@H]([C@H](NC(=O)[C@@H]2C[C@@H](CCC)CN2C)[C@H](C)Cl)O[C@@H]1SC.Cl` [Clindamycin palmitate hydrochloride], the IC50 [2] is reported as 33.2 µM and the “SARS-CoV-2 3CLpro inhibitor grade in words” value is reported as “moderate”.
`CCC(=O)O[C@]1(C(=O)CCl)[C@@H](C)C[C@H]2[C@@H]3CCC4=CC(=O)C=C[C@]4(C)[C@@]3(F)[C@@H](O)C[C@@]21C` [Clobetasol propionate] showed an IC50 [2] of 18.1 µM.
For `C=C(CC)C(=O)c1ccc(OCC(=O)O)c(Cl)c1Cl` [Ethacrynic acid], the IC50 [2] was 1.11 µM.
For `CC(C)C[C@H](NC(=O)[C@@H](COC(C)(C)C)NC(=O)[C@H](Cc1ccc(O)cc1)NC(=O)[C@H](CO)NC(=O)[C@H](Cc1c[nH]c2ccccc12)NC(=O)[C@H](Cc1cnc[nH]1)NC(=O)[C@@H]1CCC(=O)N1)C(=O)N[C@@H](CCCNC(=N)N)C(=O)N1CCC[C@H]1C(=O)NNC(N)=O` [Goserelin acetate], the IC50 [1] was 12 µM.
`COc1ccc2cc([C@H](C)C(=O)O)ccc2c1` [Naproxen] gave an IC50 [1] of 3.45 µM.
`O=C(c1ccc(OCCN2CCCCC2)cc1)c1c(-c2ccc(O)cc2)sc2cc(O)ccc12` [Raloxifene hydrochloride] gave an IC50 [2] of 5.61 µM.
With `C=CC[N+]1([C@H]2C[C@H]3[C@@H]4CC[C@H]5C[C@H](O)[C@@H](N6CCOCC6)C[C@]5(C)[C@H]4CC[C@]3(C)[C@H]2OC(C)=O)CCCC1` [Rocuronium bromide] the IC50 [2] was 17.5 µM.
Compound `CC(C)(C)NC(=O)[C@@H]1C[C@@H]2CCCC[C@@H]2CN1C[C@@H](O)[C@H](Cc1ccccc1)NC(=O)[C@H](CC(N)=O)NC(=O)c1ccc2ccccc2n1` [Saquinavir mesylate] has an IC50 [1] of 9.92 µM.
Work on `CO[C@H]1C[C@@H]2CC[C@@H](C)[C@@](O)(O2)C(=O)C(=O)N2CCCC[C@H]2C(=O)O[C@H]([C@H](C)C[C@@H]2CC[C@@H](O)[C@H](OC)C2)CC(=O)[C@H](C)/C=C(\C)[C@@H](O)[C@@H](OC)C(=O)[C@H](C)C[C@H](C)/C=C/C=C/C=C/1C` [Sirolimus (Rapamycin), Sirolimus] yielded an IC50 [2] of 22.3 µM.
For `N[C@@H]1C[C@H]1c1ccccc1` [Tranylcypromine hydrochloride], the IC50 [1] was 8.64 µM.
Colistin sulphate was tested, and the IC50 [2] was 23.2 µM and the “SARS-CoV-2 3CLpro inhibitor grade in words” value was “moderate”.
